For 22 molecules, IC50 results are on record in US9957264B2 (Merck Sharp & Dohme Corp., priority 2013, dated 2018).

Molecules are shown by their SMILES. pIC50: −log10 of the molar value.

The target of assay [1] is JAK1 (recombinant purified GST-tagged catalytic domain) (Homo sapiens (Human), UniProt P23458). The assay can be described thus: Jak Biochemical HTRF Assay (JAK1). The settings on record: [ATP] 31.8 μM. Summed up:
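Phosphorylation of a common biotinylated peptide by each catalytic domain is measured by HTRF. The ATP-started reaction runs 120 min at room temperature before EDTA quench and detection.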

Assay [2] has as its target JAK2 (recombinant purified GST-tagged catalytic domain) (Homo sapiens (Human), UniProt O60674). The assay can be described thus: Jak Biochemical HTRF Assay (JAK2). The settings on record: [ATP] 8.5 μM. On the technique in general: Time-resolved FRET reads energy transfer from a long-lived donor to a nearby acceptor.

JAK1 (recombinant purified GST-tagged catalytic domain), sequence (P23458 875-1153): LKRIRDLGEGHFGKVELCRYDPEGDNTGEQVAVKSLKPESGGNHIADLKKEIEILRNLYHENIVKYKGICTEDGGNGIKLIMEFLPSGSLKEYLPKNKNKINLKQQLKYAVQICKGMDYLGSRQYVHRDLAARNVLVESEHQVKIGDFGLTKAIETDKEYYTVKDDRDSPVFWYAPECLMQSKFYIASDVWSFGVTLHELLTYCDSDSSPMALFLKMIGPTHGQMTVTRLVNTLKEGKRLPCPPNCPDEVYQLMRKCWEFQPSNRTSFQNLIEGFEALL
JAK2 (recombinant purified GST-tagged catalytic domain), sequence (O60674 849-1124): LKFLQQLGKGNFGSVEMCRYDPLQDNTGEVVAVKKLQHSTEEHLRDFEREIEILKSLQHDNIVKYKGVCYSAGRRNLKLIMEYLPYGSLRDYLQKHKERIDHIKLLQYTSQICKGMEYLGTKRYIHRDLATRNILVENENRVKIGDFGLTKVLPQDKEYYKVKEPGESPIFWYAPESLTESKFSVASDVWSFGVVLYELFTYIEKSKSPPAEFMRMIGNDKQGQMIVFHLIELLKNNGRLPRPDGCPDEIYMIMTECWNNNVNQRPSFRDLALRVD

A word on the pIC50: it is the IC50 on a negative log10 scale, so that one unit is a factor of ten. Regarding `CC1CN(S(=O)(=O)c2ccc(Nc3nn([C@]4(CC#N)CCCOC4)c4cc[nH]c(=O)c34)cc2)C1` [Example 5-106, {(3S)-3-[3-({4-[(3-methylazetidin-1-yl)sulfonyl]phenyl}amino)-4-oxo-4,5-dihydro-1H-pyrazolo[4,3-c]pyridin-1-yl]tetrahydro-2H-pyran-3-yl}acetonitrile], the pIC50 is 9.41 in assay [1] and 9.00 in assay [2].

As for `CCNC(c1ccc(Nc2nn([C@@]3(CC#N)CCCC[C@H]3F)c3cc[nH]c(=O)c23)cc1)C(F)(F)F` (single isomer, unassigned) [Example 5-173, {(1R,2R)-1-[3-({4-[(1R or 1S)-1-(ethylamino)-2,2,2-trifluoroethyl]phenyl}amino)-4-oxo-4,5-dihydro-1H-pyrazolo [4,3-c]pyridin-1-yl]-2-fluorocyclohexyl} acetonitrile], the pIC50 in assay [1] and in assay [2] was 10.15 in each case.

In the case of `CC(C)N1Cc2cc(Nc3nn(C4(CC#N)CCCC4)c4cc[nH]c(=O)c34)ccc2C1=O` [Example 5-129, 2-(1-(3-((2-isopropyl-1-oxoisoindolin-5-yl)amino)-4-oxo-4,5-dihydro-1H-pyrazolo[4,3-c]pyridin-1-yl)cyclopentyl)acetonitrile], the negative logarithm of the IC50 (pIC50) in assay [1] was 8.68; in assay [2], 8.45.

Turning to `CN(C)S(=O)(=O)c1ccc(Nc2nn(C3(CC#N)CCN(C(=O)CC4CC4)CC3)c3cc[nH]c(=O)c23)cc1` [Example 9-10, 4-({1-[4-(cyanomethyl)-1-(cyclopropylacetyl)piperidin-4-yl]-4-oxo-4,5-dihydro-1H-pyrazolo[4,3-c]pyridin-3-yl}amino)-N,N-dimethylbenzenesulfonamide], the values for the pIC50 in assay [1] and in assay [2] were 9.77 and 8.97, respectively.

With `N#CCC1(n2nc(Nc3ccc([C@@H](O)C(F)(F)F)cc3)c3c(=O)[nH]ccc32)CCN(c2cc(C(F)(F)F)ccn2)CC1` (single isomer, unassigned) [Example 16-2, (R or S)-2-(4-(4-oxo-3-(4-(2,2,2-trifluoro-1-hydroxyethyl)phenylamino)-4,5-dihydropyrazolo[4,3-c]pyridin-1-yl)-1-(4-(trifluoromethyl)pyridin-2-yl)piperidin-4-yl)acetonitrile], the values for the pIC50 in assay [1] and in assay [2] were 8.94 and 8.32, respectively.

Consider `CC(OC(=O)N1CCC(CC#N)(n2nc(Nc3ccc(S(=O)(=O)N(C)C)cc3)c3c(=O)[nH]ccc32)CC1)c1ccccn1` (centres unmarked) [Example 11-9, 1-(pyridin-2-yl)ethyl 4-(cyanomethyl)-4-(3-((4-(N,N-dimethylsulfamoyl)phenyl)amino)-4-oxo-4,5-dihydro-1H-pyrazolo[4,3-c]pyridin-1-yl)piperidine-1-carboxylate], for which the pIC50 is 9.39 in assay [1] and 8.86 in assay [2].

`CC(C)(C)OC(=O)[C@@H]1CC[C@@](CC#N)(n2nc(Nc3ccc([C@H](N)C(F)(F)F)cc3)c3c(=O)[nH]ccc32)CO1` (single isomer, unassigned) [Example 5-53, (2S,5S)-tert-butyl 5-(3-((4-((S or R)-1-amino-2,2,2-trifluoroethyl)phenyl)amino)-4-oxo-4,5-dihydro-1H-pyrazolo[4,3-c]pyridin-1-yl)-5-(cyanomethyl) tetrahydro-2H-pyran-2-carboxylate]: the negative-log IC50 (pIC50) in assay [1] is 9.72; in assay [2], 9.24.

Regarding `CC(C)CN1Cc2cc(Nc3nn(C4(CC#N)CCN(C(=O)OC(C)(C)C)CC4)c4cc[nH]c(=O)c34)ccc2S1(=O)=O` [Example 5-67], the pIC50 is 9.33 in assay [1] and 9.28 in assay [2].

Regarding `COC(=O)N1CCC(CC#N)(n2nc(Nc3ccc(S(=O)(=O)C(C)C)cc3)c3c(=O)[nH]ccc32)CC1` [Example 5-149, methyl 4-(cyanomethyl)-4-(3-((4-(isopropylsulfonyl)phenyl)amino)-4-oxo-4,5-dihydro-1H-pyrazolo[4,3-c]pyridin-1-yl)piperidine-1-carboxylate], the pIC50 in assay [1] is 9.92; in assay [2], 9.64.

As to `CC(C)(C)OC(=O)N1CCC(CC#N)(n2nc(Nc3ccc(C4(C(F)(F)F)CCNC4)cc3)c3c(=O)[nH]ccc32)CC1` (single isomer, unassigned) [Example 5-283, (S or R) tert-butyl 4-(cyanomethyl)-4-(4-oxo-3-((4-(3-(trifluoromethyl)pyrrolidin-3-yl)phenyl)amino)-4,5-dihydro-1H-pyrazolo[4,3-c]pyridin-1-yl)piperidine-1-carboxylate], the pIC50 in assay [1] is 9.48; in assay [2], 9.37.

`CC(C)NC(c1ccc(Nc2nn([C@]3(CC#N)CC[C@@H](C(=O)OC(C)(C)C)OC3)c3cc[nH]c(=O)c23)cc1)C(F)(F)F` (single isomer, unassigned) [Example 5-209, (2S,5S)-tert-butyl 5-(cyanomethyl)-5-(4-oxo-3-((4-((R or S)-2,2,2-trifluoro-1-(isopropylamino)ethyl)phenyl)amino)-4,5-dihydro-1H-pyrazolo [4,3-c]pyridin-1-yl)tetrahydro-2H-pyran-2-carboxylate]: the values for the pIC50 in assay [1] and in assay [2] were 9.49 and 9.46, respectively.

With `CN(C)S(=O)(=O)c1ccc(Nc2nn(C3(CC#N)CCN(C(=O)c4ccccc4)CC3)c3cc[nH]c(=O)c23)cc1` [Example 9-12, 4-({1-[4-(cyanomethyl)-1-(phenylcarbonyl)piperidin-4-yl]-4-oxo-4,5-dihydro-1H-pyrazolo[4,3-c]pyridin-3-yl}amino)-N,N-dimethylbenzenesulfonamide], the negative-log IC50 (pIC50) in assay [1] is 8.77; in assay [2] it was 7.78.

As for `COC(=O)N1CCC(CC#N)(n2nc(Nc3ccc4c(c3)CN(CC3CCCC3)S4(=O)=O)c3c(=O)[nH]ccc32)CC1` [Example 5-75, methyl 4-(cyanomethyl)-4-(3-{[2-(cyclopentylmethyl)-1,1-dioxo-2,3-dihydro-1,2-benzothiazol-5-yl]amino}-4-oxo-1H,4H,5H-pyrazolo [4,3-c]pyridin-1-yl) piperidine-1-carboxylate], the pIC50 in assay [1] was 9.92; in assay [2], 9.43.

As for `CC(C)(C)OC(=O)N1CC(CC#N)(n2nc(Nc3ccnc(C(F)(F)F)c3)c3c(=O)[nH]ccc32)C1` [Example 4-1, tert-butyl 3-(cyanomethyl)-3-(4-oxo-3-((2-(trifluoromethyl)pyridin-4-yl)amino)-4,5-dihydro-1H-pyrazolo[43-c]pyridin-1-yl)azetidine-1-carboxylate], the results for the negative-log IC50 (pIC50) in assay [1] and in assay [2] were 7.48 and 6.66, respectively.

For `CC(C)S(=N)(=O)c1ccc(Nc2nn([C@]3(CC#N)CCCOC3)c3cc[nH]c(=O)c23)cc1` (single isomer, unassigned) [Example 5-232, 2-((3S)-3-(4-oxo-3-((4-(propan-2-yl-(S or R)-sulfonimidoyl)phenyl)amino)-4,5-dihydro-1H-pyrazolo[4,3-c]pyridin-1-yl)tetrahydro-2H-pyran-3-yl)acetonitrile], the figures for the pIC50 in assay [1] and in assay [2] were 9.57 and 9.22, respectively.

Take `CC(C)(C)OC(=O)N1CCC(CC#N)(n2nc(Nc3ccc4c(c3)CCS4(=O)=O)c3c(=O)[nH]ccc32)CC1` [Example 5-82, tert-butyl 4-(cyanomethyl)-4-(3-((1,1-dioxido-2,3-dihydrobenzo[d]thiophen-5-yl)amino)-4-oxo-4,5-dihydro-1H-pyrazolo[4,3-c]pyridin-1-yl)piperidine-1-carboxylate]: the negative-log IC50 (pIC50) in assay [1] was 10.00; in assay [2], 9.51.

As to `N#CC[C@]1(n2nc(Nc3ccc(Cl)cc3)c3c(=O)[nH]ccc32)CC[C@@H](Nc2ccccc2)CC1` [Example 18-13, Cis 2-(1-(3-((4-chlorophenyl)amino)-4-oxo-4,5-dihydro-1H-pyrazolo[4,3-c]pyridin-1-yl)-4-(phenylamino)cyclohexyl)acetonitrile], the negative logarithm of the IC50 (pIC50) is 7.19 in assay [1] and less than 5.83 in assay [2].

With `CC(C)(C)OC(=O)N1CCC(CC#N)(n2nc(Nc3ccc4c(c3)CN(CC(F)(F)F)S4(=O)=O)c3c(=O)[nH]ccc32)CC1` [Example 5-25, tert-butyl 4-(cyanomethyl)-4-(3-((1,1-dioxido-2-(2,2,2-trifluoroethyl)-2,3-dihydrobenzo[d]isothiazol-5-yl)amino)-4-oxo-4,5-dihydro-1H-pyrazolo[4,3-c]pyridin-1-yl)piperidine-1-carboxylate], the pIC50 in assay [1] is 9.72; in assay [2], 9.52.

With `CC(C)(C)OC(=O)[C@@H]1CC[C@@](CC#N)(n2nc(Nc3ccc(S(=O)(=O)C(C)(C)C)cc3)c3c(=O)[nH]ccc32)CO1` [Example 5-235, (2S,5S)-tert-butyl 5-(3-((4-(tert-butylsulfonyl)phenyl)amino)-4-oxo-4,5-dihydro-1H-pyrazolo[4,3-c]pyridin-1-yl)-5-(cyanomethyl) tetrahydro-2H-pyran-2-carboxylate], the pIC50 in assay [1] is 9.85; in assay [2] it was 9.68.

As to `CN(C)S(=O)(=O)c1ccc(Nc2nn(C3(CC#N)CCN(Cc4c(F)cccc4F)CC3)c3cc[nH]c(=O)c23)cc1` [Example 8-10, 4-({1-[4-(cyanomethyl)-1-(2,6-difluorobenzyl)piperidin-4-yl]-4-oxo-4,5-dihydro-1H-pyrazolo[4,3-c]pyridin-3-yl}amino)-N,N-dimethylbenzenesulfonamide], the values for the pIC50 in assay [1] and in assay [2] were 9.72 and 9.54, respectively.

`CC(C)(C)OC(=O)N1CCC(CC#N)(n2nc(NCC3CC3)c3c(=O)[nH]ccc32)CC1` [Example 2-2, tert-butyl 4-(cyanomethyl)-4-{3-[(cyclopropylmethyl)amino]-4-oxo-4,5-dihydro-1H-pyrazolo[4,3-c]pyridin-1-yl}piperidine-1-carboxylate]: the negative-log IC50 (pIC50) in assay [1] is 7.30; in assay [2], 7.40.

Consider `N#CC[C@]1(n2nc(Nc3ccc(S(=O)(=O)C(F)F)cc3)c3c(=O)[nH]ccc32)CC[C@H](N2CC(F)C2)CC1` [Example 18-28, Trans 2-(1-(3-((4-((difluoromethyl)sulfonyl)phenyl)amino)-4-oxo-4,5-dihydro-1H-pyrazolo[4,3-c]pyridin-1-yl)-4-(3-fluoroazetidin-1-yl)cyclohexyl)acetonitrile], for which the pIC50 in assay [1] is 10.30; in assay [2], 9.96.
